Reference: patent US11858925B2, “GAS41 inhibitors and methods of use thereof” (The Regents of the University of Michigan, priority 2020, dated 2024)
Where two headings read alike, the source gives them in different places.

What was measured:
[1] = biological target: T1, His6-tagged full-length GAS41 (Homo sapiens, UniProt O95619); experiment: AlphaScreen competition assay with full-length GAS41 and biotin-H3K23crK27cr; assay type: binding
T1 construct: using His6-tagged full-length GAS41 and biotinylated-, di-crotonylated-H3 peptide
T1 sequence (O95619 whole entry): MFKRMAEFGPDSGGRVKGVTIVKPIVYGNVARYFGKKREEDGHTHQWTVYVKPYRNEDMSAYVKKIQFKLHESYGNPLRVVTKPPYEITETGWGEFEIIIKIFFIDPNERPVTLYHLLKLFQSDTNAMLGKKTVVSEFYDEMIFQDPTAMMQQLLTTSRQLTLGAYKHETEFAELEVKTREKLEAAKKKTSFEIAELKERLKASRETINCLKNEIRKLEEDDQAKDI
Description: An AlphaScreen competition assay was also developed using His6-tagged full-length GAS41 and biotinylated-, di-crotonylated-H3 peptide (biotin-H3K23crK27cr). For full-length protein competition experiments, 100 nM MOCR-his6-Gas41 protein was incubated with 100× competitor in 50 mM HEPES pH 7.5, 100 mM NaCl, 1 mM TCEP, 0.05% BSA, 0.01% Tween-20 for 1 hour at 1% DMSO in a 96-well ½-Area AlphaPlate. H3K23crK27cr-biotin was added to a final concentration of 25 nM and incubated for 1 hour. Nickel Chelate Acceptor AlphaScreen beads were added to a final concentration of 10 μg/mL and incubated for 1 hour. Streptavidin Donor AlphaScreen beads were added to a final concentration of 10 μg/mL and incubated for 2 hours. Alpha signal was measured on a Pherastar plate reader.

[2] = biological target: T2, 15N-labeled GAS41 YEATS domain (Homo sapiens, UniProt O95619); experiment: 1H-15N HSQC NMR binding to 15N-labeled GAS41 YEATS domain; conditions: 60 μM 15N-labeled GAS41 YEATS; 60 μM Compound 85 or 30 μM Compound 223
T2 construct: GAS41 YEATS domain were also compared by NMR
T2 sequence (O95619 15-158 limits assumed): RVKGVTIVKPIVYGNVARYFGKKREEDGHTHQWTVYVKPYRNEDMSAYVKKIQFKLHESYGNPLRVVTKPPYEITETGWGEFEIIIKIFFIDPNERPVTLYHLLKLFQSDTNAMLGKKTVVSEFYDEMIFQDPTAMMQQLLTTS
Description: FIGS. 2A-2C show data for activities of compounds disclosed herein. A) Results of a dimerization assay to determine bivalent inhibitor-induced dimerization of GAS41 YEATS domain, as described in Example 6. B) ^1H-^15N HSQC spectrum of 60 μM ^15N-labeled GAS41 YEATS domain (black) and in presence of 60 μM Compound 85 (red). C) ^1H-^15N HSQC spectrum of 60 μM ^15N-labeled GAS41 YEATS domain in presence of 30 μM Compound 223 (red).
(§1) The signal was further decreased at highest compound concentrations, and indicates saturation of YEATS domain via independent inhibitor molecules (Hook effect).

GAS41 YEATS domain = biological target: T3, GAS41 YEATS domain (Homo sapiens, UniProt O95619); experiment: AlphaScreen dimerization assay with his6-Gas41(13-158) and avi-Gas41-YEATS; assay type: binding; conditions: titration of his6-Gas41(13-158) and avi-Gas41-YEATS; Hook effect at highest concentrations
T3 construct: 500 nM his6-Gas41(13-158) and 250 nM avi-Gas41-YEATS were incubated; His-tagged and biotin-labeled Avi-tagged GAS41 YEATS domain constructs
T3 sequence (O95619 13-158 limits assumed): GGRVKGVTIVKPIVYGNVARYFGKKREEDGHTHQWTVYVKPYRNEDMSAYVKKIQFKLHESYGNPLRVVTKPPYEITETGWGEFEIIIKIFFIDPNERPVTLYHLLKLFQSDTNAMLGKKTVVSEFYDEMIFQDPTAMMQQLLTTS
T3 sequence (O95619 15-158 limits assumed): as the sequence (O95619 15-158 limits assumed) above
Description: An AlphaScreen assay based on His-tagged and biotin-labeled Avi-tagged GAS41 YEATS domain constructs was developed. For dimerization experiments, 500 nM his6-Gas41(13-158) and 250 nM avi-Gas41-YEATS were incubated in 50 mM HEPES pH 7.5, 100 mM NaCl, 1 mM TCEP, 0.05% BSA, 0.01% Tween-20 in a 96-well ½-Area AlphaPlate incubated for 30 minutes. Compounds 221 and 223 were added to a final concentration of 250 nM at 1% DMSO. Nickel Chelate Acceptor AlphaScreen beads were added to a final concentration of 10 μg/mL and incubated for 1 hour. Streptavidin Donor AlphaScreen beads were added to a final concentration of 10 μg/mL and incubated for 2 hours. For competition experiments with the dimeric complex, 500 nM his-Gas41(13-158) and 250 nM avi-Gas41-YEATS were incubated in assay buffer with 250 nM dimeric inhibitor for 30 minutes before the addition of monomeric competitor. AlphaScreen beads were added as in previous experiments. Alpha signal was measured on a Pherastar plate reader.
as §1

H1933 cells = experiment: Growth inhibition of H1933 cells; assay type: cell-based; conditions: 336 h, day 14
Description: (§2) To investigate cellular activity of GAS41 inhibitors, H1299 cells were treated with monomeric Compound 88 and dimeric Compound 221 for 4 days. […] To determine whether growth inhibition is dependent on presence of GAS41 we developed A549 GAS41 knocked-out cells using the CRISPR/CAS9 system. We found GAS41-KO were viable but grew more slowly compare with parental A549 cells and had reduced growth by ˜70% at day 14 (FIG. 4B). […] Next, we evaluated the effect of Compound 221 on growth of two NSCLC cell lines H1299 and H1933 with GAS41 amplification. […] Such effect correlates closely with activity of Compound 221 in NanoBit assay (FIG. 3). To further validate on-target activity of Compound 221, we tested expression of GAS41 target genes in H1299 (Hsu 2018). […] Altogether, dimeric inhibitor Compound 221 reduces binding of GAS41 to acetylated H3.3 in cells and induces on-target growth inhibition in NSCLCs lines.

A549 cells = experiment: Growth inhibition of A549 cells; assay type: cell-based; conditions: Homo sapiens, 12 μM concentration
Description: as §2

H1299 cells = experiment: Growth inhibition of H1299 cells; assay type: cell-based; conditions: for GI50: Homo sapiens
Description: as §2

[3] = biological target: T4, GAS41-WT interaction with H3.3 (Homo sapiens, UniProt O95619); experiment: NanoBiT assay, LgBiT-GAS41-WT and SmBiT-H3.3 in HEK293T cells; assay type: cell-based; conditions: 24 h treatment, 293T cells, estimated, read-out: IC50, inhibition of the luminescence signal
T4 construct: expressed in transfected cells; host or cells: HEK293T
T4 sequence (O95619 whole entry): as the sequence (O95619 whole entry) above
Description: A NanoBiT assay (Promega Corporation, Madison, WI) was developed to detect inhibition of protein-protein interaction in HEK293T cells by compounds. GAS41-WT and GAS41-W93A mutant were cloned into pBiT1.1-C[TK/LgBiT] vector. SmBiT-H3.3 was purchased from Promega. HEK293T cells (4×10E5) were plated into 6-well plates (DMEM with 10% FBS) and incubated for 5 h. The LgBiT-GAS41 and SmBiT-H3.3 plasmids were co-transfected using FuGENE HD for 42 h. 5×10^4 cells were transferred into 96-well white plates (DMEM with 10% FBS and 1% Penicillin and Streptomycin) and treated with compounds for 24 h. After the Nano-Glo Live Cell Reagent was added to each well, the luminescence was measured immediately using PHERAstar FS instrument.
Introduction of a point mutation W93A in LgBit GAS41 abolishing histone recognition (Hsu 2018) largely diminished luminescence signal and validates the NanoBit assay.

A549 GAS41-KO cells = experiment: Growth of A549 GAS41 knocked-out cells; assay type: cell-based
Description: as §2

[4] = AlphaScreen assay, bin Less than 500 nM, read-out: GAS41 YEATS inhibitor IC50

SMILES	IC50 [1, 4] [nM]	other results
CC(C)(C)c1ccc(C(=O)N2CCCC2)s1 [Compound 134, (5-(tert-butyl)thiophen-2-yl)(pyrrolidin-1-yl)methanone]	–	IC50 ([1]; AlphaScreen, 100 nM MOCR-his6-Gas41, 25 nM H3K23crK27cr-biotin, read-out: IC50): 73000 nM
O=C(Nc1ccc(C(=O)N2CC(c3nccs3)C2)s1)[C@@H]1C[C@@H](OCCCCCCCCO[C@H]2CN[C@H](C(=O)Nc3ccc(C(=O)N4CC(c5nccs5)C4)s3)C2)CN1 [Compound 220]	< 500	–
CN(C(=O)C1C[C@@H](OCCCCCCO[C@H]2CN[C@H](C(=O)N(C)c3ccc(C(=O)N4CC(c5nccs5)C4)s3)C2)CN1)c1ccc(C(=O)N2CC(c3nccs3)C2)s1 (stereo partly shown) [Compound 217]	< 500	–
O=C(Nc1ccc(C(=O)N2CC(c3nccs3)C2)s1)[C@@H]1CCCN1 [Compound 85, (S)—N-(5-(3-(thiazol-2-yl)azetidine-1-carbonyl)thiophen-2-yl)pyrrolidine-2-carboxamide]	–	broadening of NMR signals (formation of a larger dimeric complex) [2]: not monomeric Compound 85
O=C(Nc1ccc(C(=O)N2CC(c3nccs3)C2)s1)[C@@H]1C[C@@H](OCCCCCCO[C@H]2CN[C@H](C(=O)Nc3ccc(C(=O)N4CC(c5nccs5)C4)s3)C2)CN1 [Compound 223, (2S,2′S,4R,4′R)-4,4′-(hexane-1,6-diylbis(oxy))bis(N-(5-(3-(thiazol-2-yl)azetidine-1-carbonyl)thiophen-2-yl)pyrrolidine-2-carboxamide)]	< 500	luminescence signal reflecting formation of the dimeric complex (GAS41 YEATS domain): increase of luminescence signal; broadening of NMR signals (formation of a larger dimeric complex) [2]: induces very substantial broadening of signals
O=C(Nc1ccc(C(=O)N2CC(c3nc4ccccc4s3)C2)s1)[C@@H]1C[C@@H](OCCCCCCCCO[C@H]2CN[C@H](C(=O)Nc3ccc(C(=O)N4CC(c5nc6ccccc6s5)C4)s3)C2)CN1 [Compound 219]	< 500	–
O=C(Nc1ccc(C(=O)N2CC(c3nc4ccccc4s3)C2)s1)[C@@H]1CCCN1 [Compound 88]	–	dose dependent growth inhibition (H1299 cells; H1299 cells treated for 4 days): Only the dimer Compound 221 induces dose dependent growth inhibition
O=C(Nc1ccc(C(=O)N2CC(c3nc4ccccc4s3)C2)s1)[C@@H]1C[C@@H](OCCCCCCO[C@H]2CN[C@H](C(=O)Nc3ccc(C(=O)N4CC(c5nc6ccccc6s5)C4)s3)C2)CN1 [Compound 218]	< 500	–

More lines, main results first:

IC50 [1, 4] [nM]	SMILES	other results
< 500	O=C(Nc1ccc(C(=O)N2CC(c3ncc(-c4cccc(CNCc5cccc(-c6cnc(C7CN(C(=O)c8ccc(NC(=O)[C@@H]9CCCN9)s8)C7)s6)c5)c4)s3)C2)s1)C1CCCN1 (stereo partly shown) [Compound 211]	–
< 500	CC(=O)NCCCCCCN(Cc1cccc(-c2cnc(C3CN(C(=O)c4ccc(NC(=O)C5CCCN5)s4)C3)s2)c1)Cc1cccc(-c2cnc(C3CN(C(=O)c4ccc(NC(=O)[C@@H]5CCCN5)s4)C3)s2)c1 (stereo partly shown) [Compound 213]	–
< 500	O=C(Nc1ccc(C(=O)N2CC(c3ncc(-c4cccc(COCc5cccc(-c6cnc(C7CN(C(=O)c8ccc(NC(=O)[C@@H]9CCCN9)s8)C7)s6)c5)c4)s3)C2)s1)C1CCCN1 (stereo partly shown) [Compound 210]	–
< 500	O=C(Nc1ccc(C(=O)N2CC(c3nc4ccccc4s3)C2)s1)[C@@H]1C[C@@H](OCCCCO[C@H]2CN[C@H](C(=O)Nc3ccc(C(=O)N4CC(c5nc6ccccc6s5)C4)s3)C2)CN1 [Compound 221]	GI50 (H1933 cells): ~6000 nM; inhibition at 12 µM (A549 cells): ~40%; GI50 (H1299 cells; NCI-H1299, 96 h, H1299 cells treated for 4 days): ~3000 nM; GI50 (H1299 cells; NCI-H1299, 336 h, H1299 cells, day 14): ~6000 nM; IC50 [3]: 6000 nM; effect on growth (A549 GAS41-KO cells): no effect
< 500	CN(Cc1cccc(-c2cnc(C3CN(C(=O)c4ccc(NC(=O)C5CCCN5)s4)C3)s2)c1)Cc1cccc(-c2cnc(C3CN(C(=O)c4ccc(NC(=O)[C@@H]5CCCN5)s4)C3)s2)c1 (stereo partly shown) [Compound 212]	–
< 500	O=C(Nc1ccc(C(=O)N2CC(c3nccs3)C2)s1)[C@@H]1C[C@@H](OCc2ccc(CO[C@H]3CN[C@H](C(=O)Nc4ccc(C(=O)N5CC(c6nccs6)C5)s4)C3)cc2)CN1 [Compound 222]	–
